Reference: ChEMBL document CHEMBL1629607, “Nalidixic acid disk for laboratory detection of ciprofloxacin resistance in Neisseria meningitidis” (2009)
Values after ≈ are worked out from the molar mass of the structure shown.

What was measured:
Type in all cases: functional
Neisseria meningitidis [1] = test: Antimicrobial activity against fluoroquinolone-resistant Neisseria meningitidis expressing gyrA mutant by disk diffusion method
Neisseria meningitidis [2] = test: Antimicrobial activity against fluoroquinolone-intermediate Neisseria meningitidis by disk diffusion method
Neisseria meningitidis [3] = test: Antimicrobial activity against fluoroquinolone-susceptible Neisseria meningitidis by disk diffusion method; settings: for MIC: Neisseria meningitidis
Neisseria meningitidis [4] = test: Antimicrobial activity against fluoroquinolone-susceptible Neisseria meningitidis at 30 ug by disk diffusion method; settings: read-out: IZ
Neisseria meningitidis [5] = test: Antimicrobial activity against fluoroquinolone-resistant Neisseria meningitidis expressing gyrA mutant at 30 ug by disk diffusion method; settings: read-out: IZ

`O=C(O)c1cn(C2CC2)c2cc(N3CCNCC3)c(F)cc2c1=O` [CIPROFLOXACIN] was tested, and the “inhibition zone (IZ)” value (Neisseria meningitidis [1]) was 29 mm, the MIC (Neisseria meningitidis [1]; Neisseria meningitidis) was no less than 0.12 µg/mL and the “inhibition zone (IZ)” value (Neisseria meningitidis [2]) was 35 mm. For the same compound, the MIC (Neisseria meningitidis [2]; Neisseria meningitidis) was 0.06 µg/mL (≈ 0.181 µM), the “inhibition zone (IZ)” value (Neisseria meningitidis [3]) was 34 mm and the MIC (Neisseria meningitidis [3]) was no more than 0.03 µg/mL.
In the case of `CCn1cc(C(=O)O)c(=O)c2ccc(C)nc21` [NALIDIXIC ACID], the zone of inhibition at 30 µg/disc (Neisseria meningitidis [4]) is reported as 28 mm, the zone of inhibition at 30 µg/disc (Neisseria meningitidis [5]) is reported as less than 15 mm and the MIC (Neisseria meningitidis [3]) is reported as 0.25 µg/mL (≈ 1.08 µM).
